Literature values as cited in patent US6495173B1, “Compositions and methods for reducing or controlling blood cholesterol, lipoproteins, triglycerides and atherosclerosis” (priority 2000, dated 2002).

Assays:
[1] = supplement users versus non-users
[2] = 100 mg per day for 30 days
[3] = 75 mg to 600 mg/day, eight years
[4] = 500 mcg BID, after 2 and 4 months
[5] = in vivo
[6] = human, in vivo
[7] = mean dose of 2,250 mg/day
[8] = large doses (3 to 6 g/day)
[9] = rats

Compound: chromium picolinate
- triglyceride level (supplementation for 2 months (vs. 161)): 133 mg/dL
- reduction in triglyceride levels (supplementation for 2 months, P<0.05): 17.4%

Compound: vitamin E
- absolute risk reduction [1]: 3.4 women per 10,000 woman-years
- reduction in relative risk for non-fatal myocardial infarction and death from cardiovascular disease ([1]; average 8 years follow-up, adjusted): 31%

Compound: COC1=C(OC)C(=O)C(C/C=C(\C)CC/C=C(\C)CC/C=C(\C)CC/C=C(\C)CC/C=C(\C)CC/C=C(\C)CC/C=C(\C)CC/C=C(\C)CC/C=C(\C)CCC=C(C)C)=C(C)C1=O [Coenzyme Q10]
- hydroperoxide levels in the LDL3 subfraction [2]: significant decrease
- Coenzyme Q10 levels in all three LDL subfractions ([2]; P<0.01): increased
- decreased dependency on drugs [3]: 43%
- improvements in myocardial function [3]: 58%

Compound: [Cr] [chromium]
- blood sugar and cholesterol versus placebo group [4]: lower

Compound: CC[C@H](C)C(=O)O[C@H]1C[C@@H](C)C=C2C=C[C@H](C)[C@H](CC[C@@H]3C[C@@H](O)CC(=O)O3)[C@H]21 [Lovastatin, lovastatin]
- increased liver transaminase levels, share of subjects [5]: 2%
- myopathy with a creatine kinase greater than 10 times normal, share of subjects [5]: 0.5%
- required discontinuation, share of those treated [5]: 9%
- decrease in levels of LDL [6]: 32.4%
- decrease in levels of VLDL [6]: 53%

Compound: O=C(O)c1cccnc1 [Nicotinic acid]
- increase in levels of HDL-cholesterol [7]: 35%
- increase in HDL [8]: ≤ 30 mg/dL

Compound: CC(C)(C)c1cc(O)ccc1O [TBHQ, tert-butylhydroquinone]
- blood cholesterol and triglycerides [9]: reduce
